Some test systems named below: HOP-62 NSCLC; SN12C renal; HL-60(TB) leukemia; IGROV1 ovarian; SF-295 CNS; DU-145 prostate; BT-549 breast; U251 CNS; SK-OV-3 ovarian; MOLT-4 leukemia.
Holding throughout (experiment): NCI anticancer screen, dose series, 48 h

Where “and” joins values, the source holds several entries; their conditions need not be identical. Equal entries are not always repeated.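 Results reflect a 48-hour exposure of cells in 96-well plates to compound at five concentrations. Here, GI50 denotes the concentration required for 50% inhibition of growth. At the TGI there is no net growth.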

For `CCN(CC)c1ccc(C(=N)c2ccc(N(C)C)cc2)cc1`, the GI50 is 1.55 µM in the assay on HOP-62 NSCLC; 2.36 µM with SN12C renal; 0.886 µM with HL-60(TB) leukemia; 0.949 µM with IGROV1 ovarian; 0.161 µM with SF-295 CNS; 1.7 µM in the assay with DU-145 prostate. Besides, the GI50 was 0.227 µM in the assay on BT-549 breast, 1.33 µM in the assay on U251 CNS, 2.15 µM in the assay on SK-OV-3 ovarian and 1.17 µM in the assay on MOLT-4 leukemia. Further, the TGI with HOP-62 NSCLC came out at 12.2 µM; in the assay on SN12C renal, 9.14 µM; in the assay with HL-60(TB) leukemia it was 15.9 µM; in the assay with IGROV1 ovarian, 13 µM; in the assay on SF-295 CNS, 2.88 µM; in the assay on DU-145 prostate it was 7.18 µM. In addition, the TGI in the assay with BT-549 breast came to 0.966 µM; in the assay with U251 CNS, 7.57 µM; in the assay on SK-OV-3 ovarian, 10.4 µM; in the assay on MOLT-4 leukemia, 4.55 µM.

Turning to `CN(C(=O)c1ccncc1)c1ccccc1`, the TGI in the assay with HOP-62 NSCLC, in the assay on SN12C renal, in the assay with HL-60(TB) leukemia, with IGROV1 ovarian, in the assay on SF-295 CNS and in the assay with DU-145 prostate was more than 100 µM in each case. Also, the TGI with BT-549 breast, in the assay with U251 CNS, in the assay on SK-OV-3 ovarian and in the assay with MOLT-4 leukemia was more than 100 µM in each case.

On to `CSC1(SC2=NCCN2)SC2(NCCN2)S1`, for which the TGI with HOP-62 NSCLC is 34.4 µM; in the assay on SN12C renal it was 41.4 µM; with HL-60(TB) leukemia it was 55.9 µM; in the assay with IGROV1 ovarian, 35.7 µM; with SF-295 CNS, 67.6 µM; in the assay on DU-145 prostate it was 28.2 µM. Moreover, the TGI in the assay on BT-549 breast stood at 54.9 µM; with U251 CNS, 32.8 µM; with SK-OV-3 ovarian, 42 µM; with MOLT-4 leukemia, 52.9 µM.

Take `OCC1OC(n2cnc3c(=S)nc[nH]c32)C(O)C1O` (configuration not stated): the GI50 was 1.48 µM in the assay on HOP-62 NSCLC; 34.3 µM in the assay on SN12C renal; 3.82 µM with HL-60(TB) leukemia; 12.2 µM in the assay on IGROV1 ovarian; 3.49 µM in the assay on SF-295 CNS; 62.7 µM with BT-549 breast. In addition, the figures for the GI50 with U251 CNS, in the assay with SK-OV-3 ovarian and in the assay with MOLT-4 leukemia were 58.3 µM, 1.25 µM and 2.58 µM, respectively. For the same compound, the TGI was more than 2500 µM in the assay with HOP-62 NSCLC; more than 2500 µM with SN12C renal; more than 2210 µM in the assay on HL-60(TB) leukemia; 2490 µM and > 100 µM in the assay on IGROV1 ovarian; more than 2500 µM in the assay on SF-295 CNS; more than 2500 µM with DU-145 prostate. The TGI in the assay with BT-549 breast was more than 2500 µM; in the assay with U251 CNS, more than 2500 µM; with SK-OV-3 ovarian, 1060 µM and > 47.4 µM; in the assay with MOLT-4 leukemia, more than 2500 µM.

Take `S=C(Nc1cc(Cl)c(Cl)cc1Cl)SCc1ccccc1`: the TGI in the assay on HOP-62 NSCLC was 56 µM; with SN12C renal, more than 100 µM; with HL-60(TB) leukemia it was 50.4 µM; in the assay with IGROV1 ovarian, more than 100 µM; in the assay with SF-295 CNS, 42.6 µM; in the assay with DU-145 prostate, more than 100 µM. The TGI in the assay with BT-549 breast is 65.8 µM; in the assay on U251 CNS, 52.7 µM; with SK-OV-3 ovarian, more than 100 µM; in the assay with MOLT-4 leukemia, 76.4 µM.

Regarding `COc1ccc(-c2nn(-c3cccc(Cl)c3)cc2-c2cc(-c3ccccc3)nc(N)n2)cc1`, the GI50 with HOP-62 NSCLC is 2.5 µM; in the assay with SN12C renal, 1.9 µM; in the assay with HL-60(TB) leukemia, 2.53 µM; with IGROV1 ovarian it was 4.2 µM; with SF-295 CNS, 3.12 µM; in the assay on DU-145 prostate, 10.5 µM. Also, the GI50 was 4.31 µM in the assay on BT-549 breast, 1.59 µM in the assay with U251 CNS, 13.5 µM in the assay with SK-OV-3 ovarian and 2.03 µM with MOLT-4 leukemia. The TGI in the assay on HOP-62 NSCLC is 6.41 µM; in the assay on SN12C renal, 5.02 µM; with HL-60(TB) leukemia, 6.21 µM; with IGROV1 ovarian it was 16.5 µM; in the assay on SF-295 CNS, 11.7 µM; in the assay on DU-145 prostate it was 22.3 µM. In addition, the TGI in the assay with BT-549 breast was 16.9 µM; in the assay with U251 CNS, 3.03 µM; with SK-OV-3 ovarian, 29.2 µM; with MOLT-4 leukemia, 5.61 µM.

For the compound `c1ccc(CSc2nnc3c4ccccc4c4ccccc4c3n2)cc1`, the TGI in the assay with HOP-62 NSCLC is 75.6 µM; in the assay on SN12C renal it was more than 100 µM; in the assay with HL-60(TB) leukemia, more than 100 µM; in the assay on IGROV1 ovarian it was more than 46.6 µM; in the assay on SF-295 CNS, 62.3 µM; in the assay on DU-145 prostate, more than 100 µM. The TGI is more than 100 µM in the assay with BT-549 breast, more than 100 µM with U251 CNS, 50 µM in the assay on SK-OV-3 ovarian and more than 100 µM with MOLT-4 leukemia.

As to `Clc1nc(Cl)c(-c2ccccc2)c(Cl)n1`, the TGI stood at 33 µM with HOP-62 NSCLC; 8.84 µM with SN12C renal; 4.77 µM with HL-60(TB) leukemia; 14 µM in the assay on IGROV1 ovarian; 27.2 µM in the assay with SF-295 CNS; 26.4 µM in the assay on DU-145 prostate. Also, the TGI in the assay on BT-549 breast is 7.09 µM; with U251 CNS it was 10 µM; with SK-OV-3 ovarian, 23.3 µM; with MOLT-4 leukemia, more than 100 µM.

Turning to `CCCc1cc(=O)n2c(C(=O)Nc3ccccc3OC)c(C(=O)Nc3ccc(F)cc3)sc2n1`, the GI50 with HOP-62 NSCLC is 2.21 µM; in the assay on HL-60(TB) leukemia, 37.4 µM; in the assay with IGROV1 ovarian, 21.5 µM; in the assay on SF-295 CNS it was 19 µM; in the assay with DU-145 prostate it was 13.3 µM; in the assay on BT-549 breast it was 31 µM. Moreover, the figures for the GI50 in the assay with U251 CNS, in the assay on SK-OV-3 ovarian and with MOLT-4 leukemia were 5.88 µM, 22.2 µM and 19.8 µM, respectively. Besides, the TGI in the assay with HOP-62 NSCLC was 13.9 µM; in the assay on HL-60(TB) leukemia, more than 160 µM; in the assay on IGROV1 ovarian it was 46.2 µM; with SF-295 CNS it was 61.7 µM; in the assay with DU-145 prostate it was 34.6 µM; in the assay with BT-549 breast, 71.1 µM. Further, the figures for the TGI in the assay on U251 CNS, in the assay on SK-OV-3 ovarian and in the assay on MOLT-4 leukemia were 21.5 µM, 96.7 µM and 57.3 µM, respectively.
